This note sets out measurements from patent US12304890B2, “R-type pyridyloxycarboxylic acid, salt and ester derivative thereof, and preparation method therefor, and herbicidal composition and application thereof” (Qingdao Kingagroot Chemical Compound Co., Ltd., priority 2018, dated 2025).

Holding throughout (format): in vivo
Data set [1] has as its system Echinochloa crusgalli. As to the kind of experiment: Post-emergence test experiment, Echinochloa crusgalli. The note with it: for Activity level (growth inhibition rate), Echinochloa crusgalli: 1000 g a.i./ha, 3 weeks in greenhouse, fresh weight inhibition; for inhibition at 200 g/ha: Echinochloa crus-galli, 504 h, read-out: Echinochloa crusgalli, activity level (growth inhibition rate); for inhibition at 200 g/ha / Echinochloa crusgalli, activity level (growth inhibition rate): 200 g a.i./ha, 3 weeks, weed resistant to ALS inhibitor and ACCe herbicides. Put shortly: (§1)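 Read-out is fresh weight inhibition rate, taken 3 weeks after spraying. Treatment was applied to plants at the 2-3 leaf stage, grown from seed under 0.5-2 cm soil in greenhouse pots. Spray solution contained acetone, tween-80 and methyl oleate emulsible concentrate at 1.5 liters per hectare.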

Data set [2] has as its system Digitaria sanguinalis. As to the kind of experiment: Post-emergence test experiment, Digitaria sanguinalis. The conditions noted are these: for Activity level (growth inhibition rate), Digitaria sanguinalis: 1000 g a.i./ha, 3 weeks in greenhouse, fresh weight inhibition; for inhibition at 200 g/ha: Digitaria sanguinalis, 504 h, read-out: Digitaria sanguinalis, activity level (growth inhibition rate); for inhibition at 200 g/ha / Digitaria sanguinalis, activity level (growth inhibition rate): 200 g a.i./ha, 3 weeks, weed resistant to cyhalofop-butyl. Put shortly: as §1

Data set [3] relates to Monocotyledonous and dicotyledonous weed seeds and main crop seeds. As to the kind of experiment: Post-emergence test experiment, other weeds and crops (Table 4, 1000 g a.i./ha). The conditions noted are these: 3 weeks in greenhouse, fresh weight inhibition. The procedure, abridged: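 Weed and crop seeds (wheat, corn, rice, soybean, cotton, oilseed, millet, sorghum) sown in soil pots in a greenhouse and sprayed at 2-3 leaf stage, 2 weeks after sowing. Compound in acetone/tween-80 with methyl oleate concentrate (1.5 L/ha) as synergist. Effect recorded as fresh-weight growth inhibition rate.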

Data set [4] has as its system Semen Euphorbiae Lathyridis. As to the kind of experiment: Post-emergence test experiment, Semen Euphorbiae Lathyridis. The conditions noted are these: 200 g a.i./ha, 3 weeks, weed resistant to cyhalofop-butyl; for inhibition at 200 g/ha: 504 h, read-out: Semen Euphorbiae Lathyridis, activity level (growth inhibition rate). The procedure, abridged: as §1
For data set [5], the system named is rice (japonica rice). As to the kind of experiment: Transplanted rice safety evaluation. The note with it: transplanted 3-leaf japonica rice, 1000 g a.i./ha, 21 days after treatment. How it is done:
In addition, the rice field soil that loaded into the 1/1,000,000 ha pot was leveled to keep water storage at 3-4 cm depth. The 3-leaf stage rice (japonica rice) was transplanted at 3 cm of transplanting depth the next day. The compound of the present invention was treated by the same way after 5 days of transplantation.
(§2) The fertility condition of Monochoria vaginalis 14 days and rice 21 days after the treatment of the compound of the invention with the naked eye.

Data set [6] deals with rice. As to the kind of experiment: Post-emergence test experiment, rice (crop selectivity). The note with it: 200 g a.i./ha, 3 weeks. The procedure, abridged: as §1
Data set [7] deals with Monochoria vaginalis. As to the kind of experiment: Weed control effect evaluation in rice field. The note with it: paddy pot, 0.5 leaf stage, 1000 g a.i./ha, 14 days; weed resistant to pyrazosulfuron-ethyl and penoxsulam. How it is done: Rice field soil was loaded into a 1/1,000,000 ha pot. The seeds of Monochoria vaginalis were sowed and gently covered with soil, then left to stand still in greenhouse in the state of 0.5-1 cm of water storage. It was kept at 3-4 cm of water storage thereafter. The weeds were treated by dripping the WP or SC water diluents prepared according to the common preparation method of the compounds of the present invention with pipette homogeneously to achieve specified effective amount when Monochoria vaginalis reached 0.5 leaf stage.
as §2

Where only a bound is given, the exact number is not on record here.

For `COC(=O)[C@@H](C)Oc1nc(F)c(Cl)c(N)c1Cl` [Compound 2-69], in data set [1], the “Activity level (growth inhibition rate), Echinochloa crusgalli” value is recorded as 5 (Level 5: the growth inhibition rate is greater than 85%) and the inhibition (in general, the change of the read-out against control, counted positive when it falls) at 200 g/ha was over 85%. In data set [2], the “Activity level (growth inhibition rate), Digitaria sanguinalis” value is on record as 5 (Level 5: the growth inhibition rate is greater than 85%) and the inhibition at 200 g/ha was over 85%. Moreover, in data set [3], the “Activity level (growth inhibition rate), Abutilon theophrasti Medic.” value was 5 (Level 5: the growth inhibition rate is greater than 85%); the “Activity level (growth inhibition rate), Galium aparine” value is on record as 5 (Level 5: the growth inhibition rate is greater than 85%); the “Activity level (growth inhibition rate), Monochoria Vaginalis” value is reported as 5 (Level 5: the growth inhibition rate is greater than 85%). Further, the inhibition at 200 g/ha in data set [4] was over 85%. Besides, the “rice, safety level 0-5” value in data set [5] is 0 (Level 0: the growth inhibition rate is less than 5%). The “rice, activity level (growth inhibition rate)” value (“rice … (growth inhibition rate)” below) in data set [6] is 0 (Level 0: the growth inhibition rate is less than 5%). The “Monochoria Vaginalis, activity level 0-5” value in data set [7] is 5 (Level 5: the growth inhibition rate is greater than 85%).

Turning to `C[C@@H](Oc1nc(F)c(Cl)c(N)c1Cl)C(=O)SCc1ccc(Cl)cc1` [Compound 2-319], in data set [1], the “Activity level (growth inhibition rate), Echinochloa crusgalli” value is listed as 5 (Level 5: the growth inhibition rate is greater than 85%) and the inhibition at 200 g/ha was over 85%. Also, in data set [2], the “Activity level (growth inhibition rate), Digitaria sanguinalis” value is recorded as 5 (Level 5: the growth inhibition rate is greater than 85%) and the inhibition at 200 g/ha is over 85%. For the same compound, in data set [3], the “Activity level (growth inhibition rate), Abutilon theophrasti Medic.” value is 5 (Level 5: the growth inhibition rate is greater than 85%); the “Activity level (growth inhibition rate), Galium aparine” value is listed as 5 (Level 5: the growth inhibition rate is greater than 85%); the “Activity level (growth inhibition rate), Monochoria Vaginalis” value is reported as 5 (Level 5: the growth inhibition rate is greater than 85%). Moreover, in data set [4], the inhibition at 200 g/ha is over 85%. Further, in data set [5], the “rice, safety level 0-5” value is 0 (Level 0: the growth inhibition rate is less than 5%). Also, in data set [6], the “rice … (growth inhibition rate)” value is reported as 0 (Level 0: the growth inhibition rate is less than 5%). In data set [7], the “Monochoria Vaginalis, activity level 0-5” value was 5 (Level 5: the growth inhibition rate is greater than 85%).

Take `C[C@@H](Oc1nc(F)c(Cl)c(N)c1Cl)C(=O)OCc1ccco1` [Compound 2-348]: in data set [1], the “Echinochloa crusgalli, activity level (growth inhibition rate)” value was 5 (Level 5: the growth inhibition rate is greater than 85%) and the “Activity level (growth inhibition rate), Echinochloa crusgalli” value was 5 (Level 5: the growth inhibition rate is greater than 85%). Moreover, in data set [2], the “Digitaria sanguinalis, activity level (growth inhibition rate)” value is 5 (Level 5: the growth inhibition rate is greater than 85%) and the “Activity level (growth inhibition rate), Digitaria sanguinalis” value is 5 (Level 5: the growth inhibition rate is greater than 85%). Moreover, in data set [3], the “Activity level (growth inhibition rate), Abutilon theophrasti Medic.” value was 5 (Level 5: the growth inhibition rate is greater than 85%); the “Activity level (growth inhibition rate), Galium aparine” value is listed as 5 (Level 5: the growth inhibition rate is greater than 85%); the “Activity level (growth inhibition rate), Monochoria Vaginalis” value is listed as 5 (Level 5: the growth inhibition rate is greater than 85%). The “Semen Euphorbiae Lathyridis, activity level (growth inhibition rate)” value in data set [4] is reported as 5 (Level 5: the growth inhibition rate is greater than 85%). In addition, in data set [5], the “rice, safety level 0-5” value is given as 0 (Level 0: the growth inhibition rate is less than 5%). Further, the “rice … (growth inhibition rate)” value in data set [6] is on record as 0 (Level 0: the growth inhibition rate is less than 5%). Also, the “Monochoria Vaginalis, activity level 0-5” value in data set [7] is given as 5 (Level 5: the growth inhibition rate is greater than 85%).

Turning to `C[C@@H](Oc1nc(F)c(Cl)c(N)c1Cl)C(=O)SCc1ccccn1` [Compound 2-343], in data set [1], the “Echinochloa crusgalli, activity level (growth inhibition rate)” value is reported as 5 (Level 5: the growth inhibition rate is greater than 85%) and the “Activity level (growth inhibition rate), Echinochloa crusgalli” value is listed as 5 (Level 5: the growth inhibition rate is greater than 85%). For the same compound, in data set [2], the “Digitaria sanguinalis, activity level (growth inhibition rate)” value is listed as 5 (Level 5: the growth inhibition rate is greater than 85%) and the “Activity level (growth inhibition rate), Digitaria sanguinalis” value was 5 (Level 5: the growth inhibition rate is greater than 85%). For the same compound, in data set [3], the “Activity level (growth inhibition rate), Abutilon theophrasti Medic.” value is recorded as 5 (Level 5: the growth inhibition rate is greater than 85%); the “Activity level (growth inhibition rate), Galium aparine” value is 5 (Level 5: the growth inhibition rate is greater than 85%); the “Activity level (growth inhibition rate), Monochoria Vaginalis” value is reported as 5 (Level 5: the growth inhibition rate is greater than 85%). Further, in data set [4], the “Semen Euphorbiae Lathyridis, activity level (growth inhibition rate)” value is recorded as 5 (Level 5: the growth inhibition rate is greater than 85%). For the same compound, in data set [5], the “rice, safety level 0-5” value is 0 (Level 0: the growth inhibition rate is less than 5%). In data set [6], the “rice … (growth inhibition rate)” value is recorded as 0 (Level 0: the growth inhibition rate is less than 5%). In addition, the “Monochoria Vaginalis, activity level 0-5” value in data set [7] is on record as 5 (Level 5: the growth inhibition rate is greater than 85%).

`CCOC(=O)COC(=O)C(C)Oc1nc(F)c(Cl)c(N)c1Cl` (stereo not shown) [Compound 2-294]: in data set [1], the “Echinochloa crusgalli, activity level (growth inhibition rate)” value was 5 (Level 5: the growth inhibition rate is greater than 85%) and the “Activity level (growth inhibition rate), Echinochloa crusgalli” value was 5 (Level 5: the growth inhibition rate is greater than 85%). In addition, in data set [2], the “Digitaria sanguinalis, activity level (growth inhibition rate)” value was 5 (Level 5: the growth inhibition rate is greater than 85%) and the “Activity level (growth inhibition rate), Digitaria sanguinalis” value was 5 (Level 5: the growth inhibition rate is greater than 85%). Also, in data set [3], the “Activity level (growth inhibition rate), Abutilon theophrasti Medic.” value is on record as 5 (Level 5: the growth inhibition rate is greater than 85%); the “Activity level (growth inhibition rate), Galium aparine” value was 5 (Level 5: the growth inhibition rate is greater than 85%); the “Activity level (growth inhibition rate), Monochoria Vaginalis” value is reported as 5 (Level 5: the growth inhibition rate is greater than 85%). The “Semen Euphorbiae Lathyridis, activity level (growth inhibition rate)” value in data set [4] was 5 (Level 5: the growth inhibition rate is greater than 85%). For the same compound, the “rice, safety level 0-5” value in data set [5] is 0 (Level 0: the growth inhibition rate is less than 5%). Moreover, the “rice … (growth inhibition rate)” value in data set [6] is on record as 0 (Level 0: the growth inhibition rate is less than 5%). Also, in data set [7], the “Monochoria Vaginalis, activity level 0-5” value is listed as 5 (Level 5: the growth inhibition rate is greater than 85%).
